Assay results taken from patent US8008260B2, “Methods of protecting against apoptosis using lipopeptides” (Cleveland Clinic Foundation, priority 2005, dated 2011).
Values joined by “and” are separate entries in the source; they are usually repeats but may differ in a detail not shown here. Equal entries are not always repeated. Peptide text beside a SMILES is read from it. * marks the point of attachment. Propyl(2R-PamO,3-PamO) = CCCCCCCCCCCCCCCC(=O)OC[C@H](C*)OC(=O)CCCCCCCCCCCCCCC

What was measured:
TLR2/TLR6 heterodimer = molecular target: T1, TLR2/TLR6 heterodimer (Homo sapiens, UniProt O60603+Q9Y2C9); experiment: NF-κB-dependent reporter activity in 293 cells expressing the TLR2/TLR6 heterodimer; format: cell-based; design: NF-κB activation: scale not given here; settings: in vitro activity, 293 cells expressing TLR2/TLR6
T1 construct: expressed in transfected cells; host or cells: 293 cells
T1 sequence (O60603 21-784): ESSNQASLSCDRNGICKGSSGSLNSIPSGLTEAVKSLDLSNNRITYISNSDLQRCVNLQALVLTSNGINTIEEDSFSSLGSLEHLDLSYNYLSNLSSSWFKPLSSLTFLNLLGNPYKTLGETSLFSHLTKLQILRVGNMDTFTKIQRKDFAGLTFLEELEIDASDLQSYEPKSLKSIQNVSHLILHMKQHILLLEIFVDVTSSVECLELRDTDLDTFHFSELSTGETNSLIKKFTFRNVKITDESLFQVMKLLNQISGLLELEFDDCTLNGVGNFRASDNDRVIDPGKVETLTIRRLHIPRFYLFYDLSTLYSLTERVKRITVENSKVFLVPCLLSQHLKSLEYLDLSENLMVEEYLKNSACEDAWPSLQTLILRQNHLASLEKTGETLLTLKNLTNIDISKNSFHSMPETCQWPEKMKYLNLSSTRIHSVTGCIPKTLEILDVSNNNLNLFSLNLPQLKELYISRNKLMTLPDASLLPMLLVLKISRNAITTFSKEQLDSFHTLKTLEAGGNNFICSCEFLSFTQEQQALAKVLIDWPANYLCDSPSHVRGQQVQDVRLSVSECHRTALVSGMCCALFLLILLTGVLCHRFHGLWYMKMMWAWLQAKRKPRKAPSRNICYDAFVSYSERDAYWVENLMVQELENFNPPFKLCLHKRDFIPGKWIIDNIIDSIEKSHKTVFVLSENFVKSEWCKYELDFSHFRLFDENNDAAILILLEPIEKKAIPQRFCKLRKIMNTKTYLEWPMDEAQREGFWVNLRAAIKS
T1 sequence (Q9Y2C9 32-796): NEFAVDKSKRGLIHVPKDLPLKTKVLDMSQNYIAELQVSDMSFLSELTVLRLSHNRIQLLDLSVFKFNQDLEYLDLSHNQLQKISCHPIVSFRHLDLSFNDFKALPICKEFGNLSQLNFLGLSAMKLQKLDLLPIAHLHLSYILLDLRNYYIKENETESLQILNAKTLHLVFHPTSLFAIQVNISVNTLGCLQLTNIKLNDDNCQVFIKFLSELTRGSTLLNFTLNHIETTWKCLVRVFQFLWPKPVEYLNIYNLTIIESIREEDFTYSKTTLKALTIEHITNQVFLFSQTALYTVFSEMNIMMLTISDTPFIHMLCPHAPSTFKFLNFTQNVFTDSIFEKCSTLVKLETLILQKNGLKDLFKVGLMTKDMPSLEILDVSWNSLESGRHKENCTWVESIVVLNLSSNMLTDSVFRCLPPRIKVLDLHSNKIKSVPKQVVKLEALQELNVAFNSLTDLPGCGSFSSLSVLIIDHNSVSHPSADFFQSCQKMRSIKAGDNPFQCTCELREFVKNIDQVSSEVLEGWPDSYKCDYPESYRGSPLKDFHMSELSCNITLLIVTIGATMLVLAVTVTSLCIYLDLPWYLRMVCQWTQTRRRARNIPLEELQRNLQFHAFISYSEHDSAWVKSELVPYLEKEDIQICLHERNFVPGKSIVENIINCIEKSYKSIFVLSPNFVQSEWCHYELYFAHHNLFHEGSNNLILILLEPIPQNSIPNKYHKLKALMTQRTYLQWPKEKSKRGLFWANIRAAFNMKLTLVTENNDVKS
Method: NF-κB-dependent reporter activity was measured in 293 cells that expressed the TLR2/YLR6 heterodimer. […] None of the non-palmitoylated corresponding peptides activated the NF-κB reporter (FIG. 18B). The peptide component of CBLB617 has a (−4) charge, which should prevent it from interacting with negatively charged cell surface markers. […] Table 5 summarizes the in vitro activity and solubility of all the compounds.

ICR mice = experiment: Radioprotection against total body gamma irradiation (TBI), 30-day survival; format: in vivo; settings: for mice rescued (30-day survival): one experiment
Excerpt: CBLB601, a R-Pam2-lipopeptide with the peptide moiety consisting of C-SKKKK (SEQ ID NO: 8), was selected for more detailed characterization as a radioprotector based upon its ability to activate NF-κB and preliminary in vivo data on radioprotection in NIH-SWISS mice (see Example 2). The objectives of this study were to determine the optimal dose, route of administration, and time of administration of CBLB601 to serve as a protector. ICR female mice of 10-15 weeks of age were used, with 10-15 animals per group or condition.
The optimal intraperitoneal administration schedule of CBLB601 was determined by injecting the compound at different times prior to irradiation. […] Therefore, all of the optimization experiments were performed with 10 Gy of total body irradiation (TBI). A dose of 3 μg of BCLB601/mouse (1/10 NOAEL) was chosen as the starting dose. Thus, 3 μg of CBLB601 was injected i.p. into ICR mice at 0.5 h, 1 h, 6 h, and 24 h or 1 h, 24 h, 48 h, 72 h, 96 h prior to 10 Gy of TBI (as described in Example 1). […] Injection of CBLB601 24 hrs before irradiation clearly yielded the best radioprotection (90-100% 30-day survival). When the compound was administered 48 hrs before irradiation, the radioprotection was ˜30%. Administration of CBLB601 at 1 hr prior to irradiation produced inconsistent results ranging from 80% protection in one experiment (FIG. 5B) to almost no protection (20%) in another experiment (FIG. 5A).
To determine the optimal radioprotective dose of CBLB601, the timing of injection and level of irradiation were kept constant, while the dose of CBLB601 was varied. ICR mice were injected i.p. with 1, 3, 10, 20, or 30 μg of CBLB601/mouse or 0.1, 0.3, 1, 3, 10, or […] 24 hrs prior to irradiation (10 Gy of TBI), and their survival was monitored for 30 days. The best protective dose was 3 μg/mouse, which supported a survival of 100% (FIGS. 6 A and B). […] Thus, the optimal protective dose of CBLB601 was determined to be 3 μg/mouse.
To determine the level of radiation that was protected by CBLB601, radioprotectant-treated and control mice were exposed to increasing levels of TBI. Groups of ICR mice were injected i.p. with either 3 μg CBLB601/mouse or PBS, and then 24 h later they received 10, 11, 12, 13, 14, and 15 Gy doses of TBI. Survival was recorded over 30 days. […] All of the mice irradiated with 10-11 Gy of TBI died between days 12-14 post irradiation, which was typical for death due to hematopoietic failure. All of the mice that received 14-15 Gy of TBI died between days 7-9 post irradiation, which was typical for mortality due to radiation-induced intestinal damage. Mice that were irradiated with 12-13 Gy of TBI died at intermediate times, which was typical for a mixed etiology of radiation-induced mortality. […] To reach a statistically significant 10% difference between control and CBLB601-treated mice, experimental groups of at least 50 mice must be used. Although CBLB601 rescued 100% of mice from 10 Gy of TBI, its protection at 11 Gy of TBI was only 20%. […] This may be indicative of a combined toxicity of the drug and the irradiation.
CBLB601 was administered intramuscularly to determine the optimal route of administration of this compound (especially since this would be the preferred route of administration for humans). […] In another experiment, increasing doses of CBLB601 administered i.m. were tested against 10, 11, and 12 Gy doses of […] (FIG. 9). […] A summary of the dose-dependency of the radioprotection of […] administered i.p. or i.m. 24 h prior to 10 Gy of TBI is shown in FIG. 10.
The optimal schedule of intramuscular administration of CBLB601 was determined by varying the time between drug delivery and irradiation. ICR mice were injected i.m. with 3 μg of CBLB601/mouse 24 h, 6 h, 3 h, and 1 h prior to TBI and +1 h, +3 h after TBI (FIG. 12A), as well as 48 h, 36 h, 24 h, 12 h, and 6 h prior to TBI (FIG. 12B). […]

[1] = 10 μg/mouse i.p. 24 hrs before 10 Gy TBI

Compound: CCCCCCCCCCCCCCCC(=O)OC[C@H](CSC[C@H](N)C(=O)N[C@@H](CO)C(=O)N[C@@H](CCCCN)C(=O)N[C@@H](CCCCN)C(=O)N[C@@H](CCCCN)C(=O)N[C@@H](CCCCN)C(=O)O)OC(=O)CCCCCCCCCCCCCCC [CBLB601, R-PAM2C-SKKKK] (H-C(Propyl(2R-PamO,3-PamO))SKKKK-OH)
- NF-κB activation (TLR2/TLR6 heterodimer): 100
- mice rescued (30-day survival) (ICR mice; 1 μg/mouse i.p. 24 hrs before 10 Gy TBI): 90%
- protective effect (ICR mice; 3 μg/mouse i.m. after (1 h and 3 h) 10 Gy TBI): no protective effect
- optimal time for intramuscular delivery prior to TBI (ICR mice; 3 μg/mouse i.m., 10 Gy TBI): 24 h
- radioprotection (30-day survival) (ICR mice; 3 μg/mouse i.p. 0.5 h before 10 Gy TBI): 10%
- radioprotection (30-day survival) (ICR mice; 3 μg/mouse i.p. 6 h before 10 Gy TBI): 20%
- kinetics of death versus PBS controls (ICR mice; 3 μg/mouse i.p. 24 h before 11, 12 and 13 Gy): died with an accelerated kinetics
- protection (30-day survival) (ICR mice; 3 μg/mouse i.p. 24 h before 11 Gy TBI): 20%
- protection from irradiation (ICR mice; 3 μg/mouse i.p. 24 h before TBI higher than 11 Gy (12-15 Gy)): no protection
- 30-day survival (ICR mice; 3 μg/mouse i.p. 24 hrs before 10 Gy TBI): 90-100% and 100%
- radioprotection (30-day survival) (ICR mice; 3 μg/mouse i.p. 48 hrs before 10 Gy TBI): ~30%
- radioprotection (ICR mice; 3 μg/mouse i.p. 72 h before 10 Gy TBI): No radioprotection
- radioprotection (ICR mice; 3 μg/mouse i.p. 96 h before 10 Gy TBI): No radioprotection
- combined toxicity with irradiation (ICR mice; 10 μg/mouse i.m. 24 hr before 10 Gy TBI): no sign of combined toxicity
- combined toxicity with irradiation (ICR mice; [1]): Some signs of this combined toxicity were detectable
- mice rescued (30-day survival) (ICR mice; [1]): 90%
- mortality in combination with irradiation versus PBS (ICR mice; 20 μg/mouse i.p. 24 hrs before 10 Gy TBI): accelerated mortality
- mortality in combination with irradiation versus PBS (ICR mice; 30 μg/mouse i.p. 24 hrs before 10 Gy TBI): accelerated mortality
- radioprotection (ICR mice; 1, 3 or 10 μg/mouse i.m. 24 hr before 10 Gy TBI): imparted radioprotection
- mortality shift at higher doses (ICR mice; 10, 30 μg i.m. prior to 10 Gy TBI): non-statistically significant shift to increased mortality
- combined toxicity with irradiation (ICR mice; 10 and 30 μg/mouse i.m. 1 h after 10 Gy TBI): increased levels of combined toxicity
- therapeutic index (toxic dose/effective dose) (ICR mice; i.m. administration): 10-30
- optimal dose (ICR mice; i.m. and i.p., 24 h prior to 10 Gy TBI): 3 μg/mouse
- effective dose per body weight (ICR mice; i.m. delivery, 24 h prior to 10 Gy TBI): 0.06 to 0.115 mg/kg
- radioprotective dose relative to NOAEL (fold lower) (ICR mice; i.p.): 10-30 fold
- optimal protective dose (ICR mice; i.p. 24 hrs before 10 Gy TBI): 3 μg/mouse
- therapeutic index (toxic dose/effective dose) (ICR mice; i.p. administration): 3-10
- effective dose per body weight (ICR mice; i.p. delivery, 24 h prior to 10 Gy TBI): 0.09 to 0.11 mg/kg
- therapeutic index (ICR mice; summary of Example 5): 3
